Source: patent US12698293B2, “Crystal form of macrocyclic compound, and preparation method therefor and use thereof” (HITGEN INC., priority 2021, dated 2026)
Values belong to the molecule of their own block, whether it stands above or below them.

Legend:
[1] = Stability test on influence factors (high temperature, high humidity, light), purity by HPLC; format: physicochemical; details: for change of purity / impurity content during the experimental period (in words): high temperature, high humidity and light, 30 days
Method: The crystal form and the amorphous form of the macrocyclic compound provided by the present invention were subjected to the stability test on influence factors according to China Pharmacopoeia (2020 edition) Part Four General Principles 9103. Specifically, the crystal form of a macrocyclic compound prepared in example 1 and the amorphous form of the macrocyclic compound prepared in comparative example 1 were placed in an open space under the respective conditions of high temperature (60±2° C.), high humidity (90%±5% RH, 25±2° C.) and light (4500±500 Lx) for 30 days to test stability. The observation period was 30 days. The tested samples were taken on days 5, 10 and 30, and analyzed for purity by high performance liquid chromatography.

[2] = Hygroscopicity test by dynamic vapor sorption (DVS); format: physicochemical; details: for hygroscopicity characteristic: DVS, 0-80% relative humidity, China Pharmacopoeia 2020 classes; for weight change with increasing humidity (DVS): between 0-80% relative humidity
Method: The crystal form and amorphous form of the macrocyclic compound provided by the present invention were evaluated for hygroscopicity, and the test was performed using a dynamic vapor sorption to obtain data. The description of the hygroscopicity characteristic and the definition of the weight gain due to hygroscopicity (as shown in Table 2) are referred to China Pharmacopoeia (2020 edition) Part Four General Principles 9103.
The adsorption-desorption isotherm of the crystal form prepared in example 1 is shown in FIG. 5, wherein the abscissa is relative humidity and the ordinate is weight (%). […] The adsorption-desorption isotherm of the crystal form prepared in comparative example 1 is shown in FIG. 6, wherein the abscissa is relative humidity and the ordinate is weight (%).

[3] = Accelerated stability test, crystal form checked by XRPD; format: physicochemical; details: 40 ± 2° C., relative humidity 75 ± 5%, seal
Method: The crystal form of the macrocyclic compound provided by the present invention was subjected to accelerated stability test to examine stability according to China Pharmacopoeia (2020 edition) Part Four General Principles 9103. Specifically, the crystal form was placed in a sealed space at temperature of 40±2° C. and a relative humidity of 75±5% for 6 months. The sample to be tested was taken at months 1, 2, 3 and 6, and detected using X-ray Powder Diffractometer.

[4] = Pharmacokinetic test in beagle dogs, plasma concentration after oral gavage; format: in vivo; details: dog, male beagle dogs, oral single gavage, 8 mg/kg
Method: After grouped (3 Beagle dogs per group), male beagle dogs were orally administered with the crystal form of the macrocyclic compound provided by the present invention via single gavage at a dose of 8 mg/kg. The plasma was collected at 0.25 h, 0.5 h, 1.0 h, 2.0 h, 4.0 h, 6.0 h, 8.0 h, and 24 h after the administration. A standard curve with appropriate range was established based on the concentration of the tested sample to calculate the concentration of the tested sample in plasma. The quantitative analysis was carried out and the pharmacokinetic parameters were calculated for the tested sample. The results are shown in Table 5, wherein Cmax represents the peak concentration, AUC0-last represents the area below the drug-time curve, Tmax represents peak time of the drug and T1/2 represents the half-life of the drug.

[5] = listed as comparative example 1

Sample purity (%) ([1]; High humidity (90%±5% RH, 25±2° C.), open, day 5, listed as comparative example 1): 97.9% | Sample purity (%) ([1]; High humidity (90%±5% RH, 25±2° C.), open, day 10, listed as comparative example 1): 98.0% | Sample purity (%) ([1]; High humidity (90%±5% RH, 25±2° C.), open, day 30, listed as comparative example 1): 97.7% | Sample purity (%) ([1]; High temperature (60±2° C.), open, day 5, listed as comparative example 1): 97.6% | Sample purity (%) ([1]; High temperature (60±2° C.), open, day 10, listed as comparative example 1): 97.1% | Sample purity (%) ([1]; High temperature (60±2° C.), open, day 30, listed as comparative example 1): 96.9% | Sample purity (%) ([1]; Light (4500±500 Lx), open, day 5, listed as comparative example 1): 97.4% | Sample purity (%) ([1]; Light (4500±500 Lx), open, day 10, listed as comparative example 1): 96.8% | Sample purity (%) ([1]; Light (4500±500 Lx), open, day 30, listed as comparative example 1): 96.4% | Sample purity (%) ([1]; day 0, listed as comparative example 1): 98.1% | change of purity / impurity content during the experimental period (in words) [1, 5]: decrease in purity | hygroscopicity characteristic [2, 5]: very hygroscopic (not less than 15%) | weight change with increasing humidity (DVS) [2, 5]: about 21.6%
SMILES: C[C@@H]1CCOc2ccc(F)cc2[C@H]2CCCN2c2ccc3ncc(C#N)c(c3n2)N1 [Comparative Example 1, (6R,16R)-9-fluoro-16-methyl-13-oxa-2,17,21,25-tetraazapentacyclo [16.6.2.0^2,6.0^7,12.0^22,26]hexacosane-1(25),7,9,11,18(26), 19,21,23-octane-19-carbonitrile]

crystal form by XRPD ([3]; month 1): Same as initial crystal form | crystal form by XRPD ([3]; month 2): Same as initial crystal form | crystal form by XRPD ([3]; month 3): Same as initial crystal form | crystal form by XRPD ([3]; month 6): Same as initial crystal form | Sample purity (%) ([1]; High humidity (90%±5% RH, 25±2° C.), open, day 5, listed as example 1): 98.8% | Sample purity (%) ([1]; High humidity (90%±5% RH, 25±2° C.), open, day 10, listed as example 1): 98.8% | Sample purity (%) ([1]; High humidity (90%±5% RH, 25±2° C.), open, day 30, listed as example 1): 98.8% | Sample purity (%) ([1]; High temperature (60±2° C.), open, day 5, listed as example 1): 99.0% | Sample purity (%) ([1]; High temperature (60±2° C.), open, day 10, listed as example 1): 98.9% | Sample purity (%) ([1]; High temperature (60±2° C.), open, day 30, listed as example 1): 98.9% | Sample purity (%) ([1]; Light (4500±500 Lx), open, day 5, listed as example 1): 98.9% | Sample purity (%) ([1]; Light (4500±500 Lx), open, day 10, listed as example 1): 98.8% | Sample purity (%) ([1]; Light (4500±500 Lx), open, day 30, listed as example 1): 98.6% | Sample purity (%) ([1]; day 0, listed as example 1): 98.8% | hygroscopicity characteristic ([2]; listed as example 1): not hygroscopic | weight change with increasing humidity (DVS) ([2]; listed as example 1): approximately 0.1% | AUC(0-t) [4]: 5340 ± 1070 ng·h/mL | Tmax [4]: 1.3 ± 0.58 h | half-life [4]: 19 ± 3.9 h | Cmax ([4]; read-out: C0/Cmax): 729 ± 208 ng/mL
SMILES: C[C@@H]1CCOc2ccc(F)cc2[C@H]2CCCN2c2ccc3ncc(C#N)c(c3n2)N1 [Example 1, (6R,16R)-9-fluoro-16-methyl-13-oxa-2,17,21,25-tetraazapentacyclo [16.6.2.0^2,6.0^7,12.0^22,26]hexacosane-1(25),7,9,11,18(26), 19,21,23-octane-19-carbonitrile]
change of purity / impurity content during the experimental period (in words) ([1]; listed as example 1): increased slightly under the light condition only
